{"source": "patent US20070270493A1", "about": "“Composition with Preventive or Improvement Effect on Stress-Induced Brain Function Impairment and Related Symptoms or Diseases” (priority 2004, published 2007)", "test_system": "mice subjected to restraint stress", "test": "Morris water maze learning test", "type": "in vivo, male ICR mice", "settings": "mice after 6 hour restraint stress; TGA40S-containing diet from 3 weeks before, about 25 mg TGA40S (10 mg arachidonic acid) per mouse daily; five trials a day for 5 days; FIG. 1", "source_text": "The experimental groups consisted of 56 two- to three-month-old male ICR mice, divided into a control diet group (27 mice) and a TGA40S-containing diet group (29 mice), with the control diet or TGA40S-containing diet shown in Table 1 being given to each group for 3 weeks. Each group was further divided into non-restrained groups (non-restrained control diet group (13), non-restrained arachidonic acid (ARA) diet group (15)) and restrained groups (restrained control diet group (14), restrained ARA diet group ([…])). The restraining was accomplished using a wire mesh restraining tube, once for a 6 hour period three weeks after the start of feeding. The control diet or TGA40S-containing diet shown in Table 1 continued to be fed to each group for the remaining experiment period. The TGA40S used for the TGA40S-containing diet was the product obtained in Example 1. Since the daily ingestion was approximately 5 g per mouse, the daily intake of TGA40S was 25 mg per mouse. Also, since the total fatty acids bonded to the arachidonic acid-containing oils or fats (triglycerides) prepared in Example 1 included 40 wt % arachidonic acid, the daily intake of arachidonic acid was 10 mg per mouse. […] The time required for the mouse to reach the escape platform (escape latency time) was recorded as the learning index.", "data": [{"smiles": "CCCCC/C=C\\C/C=C\\C/C=C\\C/C=C\\CCCC(=O)O", "note": "[arachidonic acid]", "values": [{"measurement": "learning ability (escape latency time, time required to reach the escape platform)", "value": "exhibits an improving effect against decline in learning ability or cognitive ability as a result of stress"}]}]}
